Source: patent US20240352000A1, “NOVEL PYRIMIDINE-2,4-DIAMINE DERIVATIVES, PREPARATION METHOD THEREFOR, AND PHARMACEUTICAL COMPOSITION CONTAINING SAME AS ACTIVE INGREDIENT FOR PREVENTION OR TREATMENT OF CANCER” (KOREA RESEARCH INSTITUTE OF CHEMICAL TECHNOLOGY, priority 2021, published 2024)

Test system: Ba/F3 EGFR L858R/T790M/C797S
Experiment: CellTiter-Glo cell viability, Ba/F3 EGFR L858R/T790M/C797S
Assay type: cell-based
Conditions: 72 hours
Experimental: An experiment to measure the activity of the compounds of the present invention against the mutant Ba/F3 EGFR cell line was performed as follows using the CellTiter-Glo system sold by Promega. The CellTiter-Glo assay is a method to confirm the cell viability by measuring ATP present in cells in cell culture. The Ba/F3 EGFR L858R, Ba/F3 EGFR L858R/T790M, Ba/F3 EGFR L858R/T790M/C797S mutant cell line was used. The Ba/F3 EGFR L858R, Ba/F3 EGFR L858R/T790M, and Ba/F3 EGFR L858R/T790M/C797S mutant cell lines was cultured in RPMI containing 10% FBS and 1% penicillin-streptomycin with 1 μg of puromycin in an incubator at 37° C. and 5% CO2.
Analysis of the inhibitory ability effect of the compounds against EGFR was conducted according to the following analysis reaction recipe.
2500 cells/90 μl were passaged and cultured in a 96-well cell culture plate, and after 24 hours, treated with the compound represented by Formula 1 at a concentration of 0, 0.01, 0.03, 0.1, 0.3, 1, 3, and 10 (μM). After reaction for 72 hours, the plate treated with the compound was left at room temperature for 30 minutes, then further treated with 100 μl of reagent, and shaken at room temperature for 10 minutes. Finally, the ratio of fluorescence values at 570 nm was obtained using the equipment to quantitatively measure and confirmed the inhibitory ability of the compounds. The measurement values measured at eight compound concentrations were analyzed using the Prism program (version 5.01, Graphpad Software, Inc.), and the IC50 value, which is an indicator of the inhibitory ability of the compound, was calculated.

COc1cc(N2CCC(N3CCN(C)CC3)CC2)ccc1Nc1ncc(Cl)c(Nc2cccc3c2N(S(C)(=O)=O)CC3)n1 [Example 2, 5-chloro-N2-(2-methoxy-4-(4-(4-methylpiperazin-1-yl)piperidin-1-yl)phenyl)-N4-(1-(methylsulfonyl)indolin-7-yl)pyrimidine-2,4-diamine]
IC50: < 100 nM
